For series [1], the system named is TLR4 signaling pathway. In words: TLR4 signaling pathway (SEAP) in HEK cells, peptide pre-treatment then LPS. Particulars: 12 hours. It is filed as cell-based. The procedure:
(§1) HEK cells were used to investigate the ability of the peptides to reduce activation of the TLR4 signaling pathway after 12 hours of treatment.
(§2) In the assay shown in FIG. 7A, the cells were treated with peptides for 1 hour, then LPS (100 ng/ml) was added. SEAP production was measured after 12 hours of treatment. In the assay shown in FIG. 7B, the cells were treated with LPS (100 ng/ml) for 1 hour, then the peptides were added. SEAP production was measured after 12 hours of treatment. LPS (100 ng/mL) was used as positive control and IL-10 (0.4 ng/mL) as negative control. * P<0.05; ** P<0.005; *** P<0.0005.

Series [2] concerns TLR4 signaling pathway. The experiment in a line: TLR4 signaling pathway (SEAP) in HEK cells, LPS pre-treatment then peptides. It is filed as cell-based. The conditions noted are these: 12 hours. As for the experimental part: as §1, §2
For series [3], the system named is NFκB. In words: NFkB expression in Jurkart-Dual reporter cells, peptide pre-treatment then TNF-α. It is filed as cell-based. The conditions noted are these: peptide then TNF-α. As for the experimental part:
The assay was then performed using TNF-α as the activating molecule not only in the control, but after a pre-treatment with the synthesized peptides Pep 1, Pep 2, Pep 3, and Pep 4 at various concentrations. […] In the assays shown in FIGS. 3 A, B, and C, NFkB expression analysis was performed in Jurkart-Dual reporter cells. Cells were treated with peptides for 1 hour and TNF-α (200 ng/ml) was added. Luciferase was measured after 12 hours of treatment (FIG. 3A), 24 hours of treatment (FIG. 3B), and 48 hours of treatment (FIG. 3C).

The test system of series [4] is NFκB, IFN, or TLR4 signaling pathways. The experiment in a line: Reporter cell lines treated with peptides alone (no activating molecule). The series is classed as cell-based. The conditions noted are these: various concentrations, 12, 24 and 48 hours. The procedure:
To investigate the ability of the peptides to interfere with the NFkB, IFN, and TLR4 pathways, reporter cell lines were used. To analyze whether the isolated peptides (without activation molecules) could induce any type of activation, the isolated peptides were tested in the cell lines during 12, 24, and 48 hours of treatment. […] As an example, FIGS. 2A, 2B, and 2C show an analysis of NFkB expression after stimulation with the synthesized peptides described in this report. The cells were treated with the synthesized peptides Pep 1, Pep 2, Pep 3, and Pep 4 at various concentrations for 12, 24, and 48 hours, without activating molecules. Luciferase was then measured after 12 hours of treatment (FIG. 2A), 24 hours of treatment (FIG. 2B), and 48 hours of treatment (FIG. 2C). […] TNF-α (200 ng/mL) was used as a positive control.

Series [5] relates to NFκB. In words: NFkB expression in Jurkart-Dual reporter cells, TNF-α pre-treatment then peptides. The series is classed as cell-based. The procedure:
Then another assay was performed in which the cells were pretreated with TNF-α and the peptides were added later. […] In the assays shown in FIGS. 4 A, B, and C the analysis of NFkB expression was performed in Jurkart-Dual reporter cells. Cells were treated with TNF-α (200 ng/ml) for 1 hour and the peptides were added. Luciferase was measured after 12 hours of treatment (FIG. 4A), 24 hours of treatment (FIG. 4B), and 48 hours of treatment (FIG. 4C). TNF-α (200 ng/mL) was used as a positive control and rIL-10 (Recombinant Interleukin-10) (0.4 ng/mL) as a negative control. * P<0.05; ** P<0.005; *** P<0.0005.

Series [6] concerns Dendritic cells from mice bone marrow. In words: Co-stimulatory molecules on bone marrow dendritic cells. The series is classed as cell-based. The conditions noted are these: CD11c+ dendritic cells; 1 μM; 24 hours. As for the experimental part:
Dendritic cells from mice bone marrow were isolated to analyze the effect of synthesized peptides Pep 1, Pep 2, Pep 3, and Pep 4 at two concentrations, 1 μM, and 10 μM, on reducing cell activation. […] In the assays, CD11c+CD86 cells (FIG. 8A) and CD11c+CD40+ cells (FIG. 8B) were used after 24 hours of treatment. LPS (100 ng/mL) was used as a positive control. * P<0.05; ** P<0.005.

The subject of a further series is IFN signaling pathway. In words: IFN signaling pathway (SEAP) in Jurkart-Dual reporter cells, peptide pre-treatment then IFN-α. It is filed as cell-based. The conditions noted are these: peptide then IFN-α, 48 hours. As for the experimental part: Therefore, we cannot confirm whether they were able to affect the activation pathway (FIGS. 6A, B, and C) in the same or better way than the negative control (rIL-10). In the assays shown in FIGS. 5 (A, B, and C) and 6 (A, B, and C), IFN expression was analyzed in Jurkart-Dual reporter cells. In the assays shown in FIGS. 5 A, B, and C, cells were treated with peptides for 1 hour followed by the addition of IFN-α (104 EU/ml). Secreted Embryonic Alkaline Phosphatase (SEAP) production was measured after 12 hours of treatment (FIG. 5A), 24 hours of treatment (FIG. 5B), and 48 hours of treatment (FIG. 5C). In the assays shown in FIGS. 6 A, B, and C, cells were treated with IFN-α (104 EU/ml) for 1 hour, and then peptides were added. SEAP production was measured after (D) 12 hours of treatment (E) 24 hours of treatment, and (F) 48 hours of treatment. IFN-α (104 EU/mL) was used as a positive control and rIL-10 (0.4 ng/mL) as a negative control. * P<0.05.

A short description of series [7]: Dynamic Light Scattering (DLS), aggregation behavior in solution. It is filed as physicochemical. As for the experimental part:
The aggregation behavior of peptides Pep 1, Pep 2, Pep 3, and Pep 4 in solution was determined by Dynamic Light Scattering (DLS), as shown in FIG. 1E. All synthetic peptides were approximately 100% monomeric in solution. The measured hydrodynamic radius of the peptides was similar for Pep 1 (0.82 nm), Pep 2 ([…]), Pep 3 (0.79 nm), and Pep 4 (0.86 nm).

Setting [8] is: peptide 1 hour, then LPS 100 ng/ml, 100 μM.
The mark [9] stands for this setting: LPS 100 ng/ml 1 hour, then peptide, 100 μM.

On to “Pep 2: synthetic peptide with affinity to the Interleukin-10 receptor, SEQ ID No 02, without disulfide bridges (HASSAVIKSSSGGGS; INTERLEUKIN-10 MIMETIC PEPTIDE)”, for which the TLR4 pathway activation result in the series on TLR4 signaling pathway [1] (setting [8]) is “significantly reduced pathway activation”; with TLR4 signaling pathway [1] (peptide then LPS, 0.1 μM), “significantly reduced pathway activation”. Further, the “activation of the TLR4 pathway” value with TLR4 signaling pathway [2] (setting [9]) is reported as “activation of the TLR4 pathway was more significantly reduced”; with TLR4 signaling pathway [2] (LPS then peptide, 0.01 μM) it was “activation of the TLR4 pathway was more significantly reduced”; in the series on TLR4 signaling pathway [2] (LPS then peptide, 0.05 μM) it was “activation of the TLR4 pathway was more significantly reduced”; in the series with TLR4 signaling pathway [2] (LPS then peptide, 0.1 μM) it was “activation of the TLR4 pathway was more significantly reduced”; in the series on TLR4 signaling pathway [2] (LPS then peptide, 0.5 μM) it was “activation of the TLR4 pathway was more significantly reduced”; with TLR4 signaling pathway [2] (LPS then peptide, 1 μM) it was “activation of the TLR4 pathway was more significantly reduced”. The NFκB activation result with NFκB [3] (0.1 μM, 12, 24 and 48 hours) is “decreased NFκB activation”; in the series on NFκB [3] (0.5 μM, 12, 24 and 48 hours), “decreased NFκB activation”; in the series with NFκB [3] (1 μM, 12, 24 and 48 hours), “decreased NFκB activation”; in the series with NFκB [3] (5 μM, 12, 24 and 48 hours), “decreased NFκB activation”; in the series on NFκB [3] (10 μM, 12, 24 and 48 hours), “decreased NFκB activation”; in the series with NFκB [3] (100 μM, 12, 24 and 48 hours) it was “decreased NFκB activation”. The “NFkB expression (luciferase)” value in series [4] is “unable to elicit any response”. Moreover, the NFκB signaling result with NFκB [5] (TNF-α 200 ng/ml 1 hour, then peptide, 100 μM, 12 hours) is given as “able to decrease NFκB signaling”; in the series with NFκB [5] (TNF-α then peptide, 0.5 μM, 24 hours) it was “less activation of the analyzed signaling pathway”; with NFκB [5] (TNF-α then peptide, 1 μM, 12 hours) it was “able to decrease NFκB signaling”; with NFκB [5] (TNF-α then peptide, 1 μM, 24 hours), “less activation of the analyzed signaling pathway”; in the series on NFκB [5] (TNF-α then peptide, 5 μM, 12 hours), “able to decrease NFκB signaling”; in the series on NFκB [5] (TNF-α then peptide, 5 μM, 24 hours), “less activation of the analyzed signaling pathway”. Besides, the NFκB signaling result with NFκB [5] (TNF-α then peptide, 10 μM, 12 hours) is “able to decrease NFκB signaling”; with NFκB [5] (TNF-α then peptide, 100 μM, 24 hours), “less activation of the analyzed signaling pathway”. Moreover, the “expression of CD40+” value in series [6] is “decreased the expression of CD86+ and CD40+”. The “expression of CD86+” value in series [6] is “decreased the expression of CD86+ and CD40+”.

For “Pep 3: synthetic peptide with affinity to the Interleukin-10 receptor, SEQ ID No 03, linear chain (HCFDTQRMEFRMPPGGGS; INTERLEUKIN-10 MIMETIC PEPTIDE)”, the “activation of the IFN signaling pathway” value in the series with IFN signaling pathway (100 μM) was “activation of the pathway was reduced”. The TLR4 pathway activation result in the series with TLR4 signaling pathway [1] (setting [8]) was “significantly reduced pathway activation”. The “activation of the TLR4 pathway” value in the series on TLR4 signaling pathway [2] (setting [9]) was “activation of the TLR4 pathway was more significantly reduced”; with TLR4 signaling pathway [2] (LPS then peptide, 0.1 μM), “activation of the TLR4 pathway was more significantly reduced”; in the series on TLR4 signaling pathway [2] (LPS then peptide, 0.5 μM), “activation of the TLR4 pathway was more significantly reduced”; with TLR4 signaling pathway [2] (LPS then peptide, 10 μM) it was “activation of the TLR4 pathway was more significantly reduced”. Further, the NFκB activation entry was “reducing pathway activation” in the series on NFκB [3] (0.01 μM, 48 hours) and “reducing pathway activation” in the series on NFκB [3] (0.05 μM, 12 hours). Besides, the “NFkB expression (luciferase)” value in series [4] is reported as “unable to elicit any response”. For the same substance, the NFκB signaling entry with NFκB [5] (TNF-α then peptide, 0.001 μM, 24 hours) was “less activation of the analyzed signaling pathway”; with NFκB [5] (TNF-α then peptide, 0.005 μM, 12 hours) it was “able to decrease NFκB signaling”; with NFκB [5] (TNF-α then peptide, 0.005 μM, 24 hours) it was “less activation of the analyzed signaling pathway”; with NFκB [5] (TNF-α then peptide, 10 μM, 24 hours) it was “less activation of the analyzed signaling pathway”. The substance also displayed a hydrodynamic radius in series [7] of 0.79 nm.

As to “Pep 4: synthetic peptide with affinity to the Interleukin-10 receptor, SEQ ID No 04, linear chain (HCMTGSRATFPSAPGGGS; INTERLEUKIN-10 MIMETIC PEPTIDE)”, the “activation of the IFN signaling pathway” value with IFN signaling pathway (0.05 μM) and with IFN signaling pathway (100 μM) was “activation of the pathway was reduced” each time. The TLR4 pathway activation entry in the series with TLR4 signaling pathway [1] (setting [8]) is listed as “significantly reduced pathway activation”; with TLR4 signaling pathway [1] (peptide then LPS, 1 μM), “significantly reduced pathway activation”; in the series on TLR4 signaling pathway [1] (peptide then LPS, 5 μM), “significantly reduced pathway activation”; in the series on TLR4 signaling pathway [1] (peptide then LPS, 10 μM) it was “significantly reduced pathway activation”. Further, the “activation of the TLR4 pathway” value is given as “activation of the TLR4 pathway was more significantly reduced” with TLR4 signaling pathway [2] (setting [9]); “activation of the TLR4 pathway was more significantly reduced” in the series with TLR4 signaling pathway [2] (LPS then peptide, 0.5 μM); “activation of the TLR4 pathway was more significantly reduced” in the series on TLR4 signaling pathway [2] (LPS then peptide, 1 μM); “activation of the TLR4 pathway was more significantly reduced” in the series with TLR4 signaling pathway [2] (LPS then peptide, 5 μM); “activation of the TLR4 pathway was more significantly reduced” in the series with TLR4 signaling pathway [2] (LPS then peptide, 10 μM). Further, the NFκB activation result in the series on NFκB [3] (0.005 μM, 48 hours) is listed as “reduced pathway activation”; in the series with NFκB [3] (0.01 μM, 48 hours), “reduced pathway activation”; in the series with NFκB [3] (0.05 μM, 48 hours) it was “reduced pathway activation”. In series [4], the “NFkB expression (luciferase)” value was “unable to elicit any response”. For the same substance, the NFκB signaling entry in the series on NFκB [5] (TNF-α then peptide, 0.5 μM, 12 hours) is reported as “able to decrease NFκB signaling”. In addition, in series [7], the hydrodynamic radius worked out at 0.86 nm.

The values are drawn from patent US20220204577A1, “Synthetic Peptides With Affinity for the Interleukin-10 Receptor, Pharmaceutical Composition and Use Thereof as Immunomodulators for Treating Autoimmune, Inflammatory or Allergic Diseases” (Universidade Federal de Uberlândia, priority 2019, published 2022).
